Data taken from article PMC8560939 (Scientific Reports, 2021).
Where two headings read alike, the source gives them in different places. Values belong to the compound of their own block, whether it stands above or below them.

Assays:
LDHB [1] = target: T1, LDHB (Homo sapiens, UniProt P07195); assay: LDHB enzyme assay by RapidFire-MS (NADH to NAD+ conversion); type: biochemical; conditions: RF-MS
T1 construct: purchased R&D Systems
Method: (§1) To compare the selectivity potency of the 22 selected compounds, we evaluated the compounds against human LDHB and LDHA by RF-MS. […] The Km value was also determined for the LDHA reaction. All EC50 values are listed in Supplementary Table 1.
We screened for compounds (final concentration: 10 μM) within pooled libraries consisting of more than 345,000 compounds. Each compound in DMSO (1 mM) was dispensed into 384-well V base plates (100 nL/well) using an Echo 555 acoustic dispenser (Labcyte, Sunnyvale, CA, USA). LDHB (5 μL) was diluted in assay buffer (20 mM Tris [pH 7.5], containing 2 mM DTT, 0.005% Triton X100, and 0.005% BSA) and dispensed into assay plates (final concentration: 0.25 nM). […] After incubation for 30 min at room temperature, acetonitrile (10 μL) and water (50 μL) were added to quench the reaction. All additions were performed using a Multidrop Combi (Thermo Fisher Scientific, Waltham, MA, USA). Assay plates were sealed and centrifuged (2700× g for 10 min) before storage at − 20 °C.
(§2) For RF-MS (Agilent, Wakefield, MA, USA), the enzyme reaction solution (5 μL) was aspirated directly from the quenched assay plates and loaded onto a C8 solid-phase extraction cartridge (Agilent) with a mobile phase of water containing DHAA (5 mM) for 2500 ms at a flow rate of 1.25 mL/min. The analytes were then co-eluted into the mass spectrometer using water:acetonitrile:acetone (2:1:1) containing ammonium acetate (5 mM) for 5000 ms at a flow rate of 1.0 ml/min. […] The extracted ion chromatograms for each transition were integrated and processed using RapidFire Integrator (Agilent). The data for each well were normalised using the monitoring product conversion with the ratio of AUCproduct / (AUCproduct + AUCsubstrate).
To determine the compound activities, percent inhibition data normalised to 0% (DMSO only) and 100% inhibition (no-enzyme control) wells were calculated. Data analysis was performed using the Tibco Spotfire (Boston, MA, USA) packages.
(§3) The reaction product was measured by RF-MS. To estimate the Km and Vmax values, the initial rates were fit to the Michaelis–Menten equation. EC50 and Hill slope calculation and curve fitting using four-parameter fits were performed using GraphPad Prism v6.07 (GraphPad Software, San Diego, CA, USA) or XLfit (IDBS, Guildford, UK) with nonlinear regression analysis, wherein the EC50 value equaled the concentration at which the inflection point of the fitted model was reached. The quality and robustness of the screening campaign process were determined by analysing the Z’ factor.

human LDHA = target: T2, human LDHA (Homo sapiens, UniProt P00338); assay: LDHA enzyme assay by RapidFire-MS; type: biochemical
T2 construct: purchased R&D Systems
Method: as §1
These concentrations were chosen based on fitting to the Michaelis–Menten model with the Km values (Supplementary Figure S2).
as §2
To determine the compound activities, percent inhibition data normalised to 0% (DMSO only) and 100% inhibition (no-enzyme control) wells were calculated. […]
The reaction product was measured by RF-MS. […] The quality and robustness of the screening campaign process were determined by analysing the Z’ factor.

LDHB [2] = target: T1, LDHB; assay: Substrate-competition assay (varying NADH or pyruvate); type: biochemical; conditions: for Vmax (NADH): NADH titration; for Vmax (Pyruvate): pyruvate titration
Method: To elucidate the underlying inhibitory mechanism, substrate competition assays were performed. LDHB inhibitory activity for AXKO-0046 was assessed at different concentrations of the substrate.
Moreover, the Km and Vmax values for LDHB were determined in the presence AXKO-0046. As the AXKO-0046 concentration increased in the reaction, both Vmax and Km decreased proportionally (Supplementary Fig. 3 and Table 1). The Lineweaver–Burke plot lines were nearly parallel (Fig. 3c,d), indicating uncompetitive inhibition with a strong preference for inhibiting the enzyme–substrate complex.
A solution of AXKO-0046 (0.00001, 0.0001, 0.001, 0.01, 0.1, 1, 10, and 100 μM) with 0.25 nM LDHB was then added. The enzymatic reactions were performed at room temperature for 15 min in triplicate. At each inhibitor concentration, the dependence of the initial reaction velocity on the substrate concentration was fitted to a nonlinear Michaelis–Menten model to obtain the Km and Vmax values using GraphPad Prism. Lineweaver–Burk plots were generated by superimposing the data of 1/[velocity] and 1/[substrate] and the line corresponding to the Michaelis–Menten nonlinear fit.

LDHB [3] = target: T1, LDHB; assay: Time-dependent inhibition (pre-incubation of AXKO-0046 and LDHB); type: biochemical; conditions: pre-incubation with LDHB up to 120 min
Method: We then assessed whether there was any time dependence to the onset of inhibition by varying the time for which AXKO-0046 and LDHB were pre-incubated before initiating the enzymatic reaction.
Supplementary Figure 4. Time-dependent inhibition of LDHB activity by AXKO-0046. Time-dependent inhibition was measured by pre-incubating AXKO-0046 and LDHB for 0, 30, 60, or 120 min, as indicated, before initiating the LDHB reaction. Data are shown as mean (n = 2).

Cellular activity = type: cell-based
CC(=O)C(=O)O = system: T3, CC(=O)C(=O)O; assay: Determination of substrate Km for LDHB (assay optimisation); type: biochemical, human; conditions: other: 500 µM NADH, increasing pyruvate
T3 construct: purchased R&D Systems
Method: Next, we optimised the assay conditions of RF-MS. Titration of human LDHB was examined at concentrations ranging from 0.0625 to 1 nM. […] We used 0.25 nM LDHB throughout assay development and screening to ensure enzyme activation. […] The Km values obtained from the two assays were consistent with the reported values for LDHB[15],[16].
as §3
Data were fitted to the Michaelis–Menten equations to obtain the kinetic constant Km using GraphPad Prism. Data are shown as mean ± standard deviation (n = 4).

[4] = system: NC(=O)C1=CN([C@@H]2O[C@H](COP(=O)(O)OP(=O)(O)OC[C@H]3O[C@@H](n4cnc5c(N)ncnc54)[C@H](O)[C@@H]3O)[C@@H](O)[C@H]2O)C=CC1; assay: purified protein, by the assay type; conditions: other: 500 μM pyruvate, increasing NADH
[5] = read-out: EC50 (μM), LDHB inhibitory activity of AXKO-0046 derivatives

T1 sequence (P07195 whole entry): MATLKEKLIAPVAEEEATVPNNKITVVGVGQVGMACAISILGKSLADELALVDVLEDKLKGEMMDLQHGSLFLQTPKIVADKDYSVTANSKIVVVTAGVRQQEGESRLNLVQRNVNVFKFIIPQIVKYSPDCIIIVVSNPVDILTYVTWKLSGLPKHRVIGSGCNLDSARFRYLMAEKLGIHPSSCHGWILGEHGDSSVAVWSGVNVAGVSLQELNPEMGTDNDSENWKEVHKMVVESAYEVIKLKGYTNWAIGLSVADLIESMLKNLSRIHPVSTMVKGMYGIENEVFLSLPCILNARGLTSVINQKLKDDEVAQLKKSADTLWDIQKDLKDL

Compound: CN(CCc1c(CNC2CCCCCC2)[nH]c2ccccc12)Cc1ccccc1 [AXKO-0060]
EC50 (LDHB [1]; [5]): 0.25 µM

Compound: Cn1c(CNC2CCCCCC2)c(CCNCc2ccccc2)c2ccccc21 [AXKO-0067]
EC50 (LDHB [1]; [5]): > 100 µM

Compound: human LDHB (Homo sapiens)
Km (CC(=O)C(=O)O): 116 µM
Km [4]: 64 µM

Continued, in another order:

EC50 (LDHB [1]; [5]): 8.3 µM
Compound: CN(CCc1c(CN(C)C2CCCCCC2)[nH]c2ccccc12)Cc1ccccc1 [AXKO-0058]

EC50 (LDHB [1]; four-parameter fit, read-out: EC50 for LDHB): 0.042 µM
inhibition of LDHA (concentration response curve) (human LDHA): did not inhibit LDHA
mode of inhibition with respect to NADH and pyruvate (LDHB [2]): uncompetitive with both substrates
Vmax (NADH) (LDHB [2]; AXKO-0046 0.00001 µM, 100 μM pyruvate): 10.1 µM/min
Vmax (Pyruvate) (LDHB [2]; AXKO-0046 0.00001 µM, 100 μM NADH): 7.3 µM/min
Vmax (NADH) (LDHB [2]; AXKO-0046 0.0001 µM, 100 μM pyruvate): 10.7 µM/min
Vmax (Pyruvate) (LDHB [2]; AXKO-0046 0.0001 µM, 100 μM NADH): 6.9 µM/min
Vmax (NADH) (LDHB [2]; AXKO-0046 0.001 µM, 100 μM pyruvate): 9.7 µM/min
Vmax (Pyruvate) (LDHB [2]; AXKO-0046 0.001 µM, 100 μM NADH): 6.5 µM/min
Vmax (NADH) (LDHB [2]; AXKO-0046 0.01 µM, 100 μM pyruvate): 8.3 µM/min
Vmax (Pyruvate) (LDHB [2]; AXKO-0046 0.01 µM, 100 μM NADH): 6.6 µM/min
Vmax (NADH) (LDHB [2]; AXKO-0046 0.1 µM, 100 μM pyruvate): 6.0 µM/min
Vmax (Pyruvate) (LDHB [2]; AXKO-0046 0.1 µM, 100 μM NADH): 4.3 µM/min
Vmax (NADH) (LDHB [2]; AXKO-0046 1 µM, 100 μM pyruvate): 2.9 µM/min
Vmax (Pyruvate) (LDHB [2]; AXKO-0046 1 µM, 100 μM NADH): 2.0 µM/min
Vmax (NADH) (LDHB [2]; AXKO-0046 10 µM, 100 μM pyruvate): 2.1 µM/min
Vmax (Pyruvate) (LDHB [2]; AXKO-0046 10 µM, 100 μM NADH): 1.6 µM/min
Vmax (NADH) (LDHB [2]; AXKO-0046 100 µM, 100 μM pyruvate): 2.2 µM/min
Vmax (Pyruvate) (LDHB [2]; AXKO-0046 100 µM, 100 μM NADH): 1.6 µM/min
IC50 (LDHB [2]; NADH 30 μM, 100 μM pyruvate): 702 nM
IC50 (LDHB [2]; NADH 50 μM, 100 μM pyruvate): 330 nM
IC50 (LDHB [2]; NADH 100 μM, 100 μM pyruvate): 223 nM
IC50 (LDHB [2]; NADH 200 μM, 100 μM pyruvate): 94.2 nM
IC50 (LDHB [2]; Pyruvate 30 μM, 100 μM NADH): 197 nM
IC50 (LDHB [2]; Pyruvate 50 μM, 100 μM NADH): 114 nM
IC50 (LDHB [2]; Pyruvate 200 μM, 100 μM NADH): 96.3 nM
Compound: c1ccc(CNCCc2c(CNC3CCCCCC3)[nH]c3ccccc23)cc1 [AXKO-0046, N-({3-[2-(benzylamino)ethyl]-1H-indol-2-yl}methyl) cycloheptanamine]
inhibition potential with pre-incubation time (LDHB [3]): did not increase with pre-incubation time
cellular activity (Cellular activity): no potent cellular activity

EC50 (LDHB [1]; [5]): 7.4 µM
Compound: CN(Cc1[nH]c2ccccc2c1CCNCc1ccccc1)C1CCCCCC1 [AXKO-0077]
